Reference: patent US20240085403A1, “METHOD FOR INHIBITING ADVENTITIOUS VIRAL INFECTION” (Allogene Therapeutics, Inc., priority 2022, published 2024)

How the values were obtained:
HHV-6 [1] = experiment: HHV-6 U65 gene copies by qPCR in iciHHV6 PBMCs treated with antiviral agents; type: cell-based, Human herpesvirus 6; conditions: 15 days culture, concentrations of Table 2
Description: (§1) We next examined the effects of other known antiviral agents on controlling HHV-6 reactivation using PBMCs with integrate HHV-6 genomes (iciHHV6) to mimic continuous low levels of HHV-6 infection. Ganciclovir, cidofovir and foscarnet are all small molecule inhibitors of HHV viral DNA polymerase. Artesunate is a small molecule antiviral agent targeting HHV immediate early genes. […] See e.g., hhv-6foundation.org/research/hhv-6-antiviral-drug-resistance; Reyman et al., 1995, Antiviral Res. 28:343-57; and Vittayawacharin et al., 2023, Transplant Cell Ther. 29:397. The cells were cultured in X-vivo supplemented media for three days before being split into 4 subcultures. Afterwards, cells were cultured for 15 additional days, with media exchange twice a week, each time containing a fresh dose of the same antiviral agent at the same initial concentration. Cell sampling was taken on different days after the antiviral agent was first added. The effect of the antiviral agent on the viability of cells were analyzed by using a cellular apoptosis screening kit (Thermo Cat #V13242),.
Next, HHV-6 replication was analyzed by detecting copies of HHV-6 gene U65 by qPCR.
(§2) Genomic DNA was extracted from cells and DNA levels of HHV-6 were determined by quantitative PCR (qPCR). The experiment was carried out using the ThermoFisher Scientific, TaqMan™ Fast Virus 1-Step Master Mix, (Catalog number: 4444434).

HHV-6 [2] = conditions: in vitro anti-HHV-6 activity, literature; read-out: EC50 (Reyman 1995); cited from earlier work
[3] = system: PBMCs with integrate HHV-6 genomes (iciHHV6); type: cell-based, human
Description: as §1

HHV-6B in CEM-HHV6 cells = experiment: CEM-HHV6 latency/reactivation model, HHV-6 qPCR after sodium butyrate and PMA reactivation; type: cell-based, human herpesvirus 6B (strain Z-29)
Description: We next tested whether viral reactivation can be induced in the latency cell culture model. CEM-HHV6 cells (1×10^7) were reactivated using 100 ng/mL of PMA (phorbol-12-myristate-13-acetate, Cat #500582 Millipore-Sigma) and 1 mM NaButyrate (Cat #19-137, Millipore-Sigma) final concentration for 2 days at 37° C. On day 2 cells were washed and resuspended in RPMI+5% FBS and cultured for 18 days. Media was replenished as needed. CEM-HHV6 cells were collected on days 5, 8, 12, 14, 16, and 19 post-reactivation. HHV-6B viral reactivation was assessed by qPCR analysis of the vgDNA of HHV-6B targeting the U31 and U65-66 genes. Untreated CEM-HHV6 cells were used as a negative control.
The CEM-HHV6 reactivation model described in FIGS. 2A-F was utilized for testing the effects of IFNα in the cell culture model, similar to the testing carried out in DP (FIG. 1A). CEM-HHV6 cells were initially cultured in bulk before the start of the experiment. One day before the start of the experiment (D-1), an aliquot of the CEM-HHV6 cells was taken out and split before treatment with one of three IFNα concentrations (100 ng/mL, 1 ng/mL and 0.01 ng/mL), which constituted the “pre-treatment” of IFNα. Cells were collected from the beginning of the experiment (D0) and continuing every few days throughout. […]

HHV-6 p41 = experiment: Immunofluorescence of HHV-6 p41 protein in CAR T drug product culture; type: cell-based, Human herpesvirus 6
Description: To test whether HHV-6 protein expression is affected by IFNα treatment, we performed immunofluorescence using an antibody specific for HHV-6 p41, an HHV-6 early gene product, on cells collected from D4 of the Batch 1 (“HHV-6 high”) DP culture.
The cells were fixed with 4% paraformaldehyde and permeabilized using 0.5% saponin before incubating with HHV6 p41 antibody conjugated with Alexa-488 at 0.2 μg/mL. Cells were stained with DAPI prior to imaging at 20× magnification.

CAR T cells [4] = system: CAR T cells
HHV-6 viral antigen p41 = experiment: Small-scale CAR T process with HHV-6B infection, p41 viral antigen by flow cytometry; type: cell-based, human herpesvirus 6B (strain Z-29); conditions: IFNα 0.1 ng/mL, D18, both donors
Description: (§3) HHV-6 reactivation from PBMC is an extremely rare event in CAR T manufacturing based on existing data. To investigate the feasibility of using IFNα in controlling HHV-6 infectivity, we designed experiments to test the effects of IFNα in the manufacturing process by deliberately introducing active HHV-6 infection. In brief, the PBMCs from two different donors were thawed from frozen storage and cultured in complete media (5% HS+X-vivo+Supplements) for activation and LVV transduction. After electroporation of cells with TALEN mRNA, the T cells were infected with HHV-6B (strain Z-29) at MOI=0.4 for 3 hrs, then transferred to the G-Rex bioreactor for expansion for 10 days (Day 8 to Day 18). IFNα was added into the complete media at different concentrations (100 ng/mL, 10 ng/mL, 1 ng/mL and 0.1 ng/mL) on D8 after the 3 hrs of HHV-6 infection and kept in culture until the end of the expansion period. Cell samples were collected on D11, D13, D15 and D18, i.e., three, five, seven, and ten days post infection, to determine the HHV-6 virus infectivity by RT-qPCR assay (FIG. 4B), flow cytometry detection (FIG. 4C), and qPCR assay (FIG. 4D). […]
HHV6 infectivity was determined by intracellular staining using antibody against HHV-6 p41 protein at 1 μg/mL and FACS analysis was performed to determine the percent of cells expressing the viral protein.

HHV-6B (strain Z-29) [5] = experiment: Small-scale CAR T process with HHV-6B infection, U31 DNA by qPCR; type: cell-based, human herpesvirus 6B (strain Z-29); conditions: IFNα 0.1 ng/mL, process D18
Description: as §3, with “4D). Description of RT-qPCR assay, flow cytometry, and genomic DNA qPCR assay are shown in Materials & Methods.” for “4D).”
Genomic DNA was extracted from cells and DNA levels of HHV-6 were determined by quantitative PCR (qPCR). […]

HHV-6 [6] = experiment: HHV-6 U31 viral DNA by qPCR in thawed CAR T drug product cultured with IFNα; type: cell-based, Human herpesvirus 6; conditions: both lots of DP (Batch 1 HHV-6 high, Batch 2 low); IFNα 0.01, 1, 100 ng/mL; D1-D7
Description: Drug product (DP) for experiment was selected based on the results of screening for HHV-6, among other adventitous agents, at the end of cell engineering process. Batch #1 was one of a few rare occurrences of DP with “positive” levels of HHV-6 and was chosen for the following studies (designated as the “HHV-6 high” group), while Batch #2 was chosen as the “low”-level counterpart. DP vials were retrieved from LN2, thawed and each split into 4 day 0 (D0) flasks. We first tested the effects of a type I IFN, such as IFNα, on the replication and infectivity of HHV-6. Flasks received either complete media (X-vivo +5% human serum (HS)+supplements) or complete media with added IFNα (human IFN-α2a at 100 ng/mL, 1 ng/mL and 0.01 ng/mL, Miltenyi). Cells were cultured for 7 additional days (D1-D7), with daily collections of cells from all conditions for freezing. Media was replaced every three days, with or without added IFNα for corresponding flasks.
Post-cell culture, DNA was extracted from the collected samples, and analyzed by qPCR for HHV-6 marker U31 as described in Material & Methods.
as §2

CAR T cells [7] = experiment: CAR T cell expansion, % CAR+ and phenotype under IFNα in the HHV-6 infection model; conditions: IFNα 0.1 ng/mL to 10 ng/mL, added Day 8 to Day 18
HHV-6 [8] = experiment: Timing of IFNα addition before HHV-6 infection, U100 and U79 transcripts by RT-qPCR; type: cell-based, Human herpesvirus 6
Description: To mimic the rare reactivation event, PBMC-derived CAR T cells were infected with exogenous HHV-6 at an MOI of 0.4 on Day 8 of the small scale manufacturing process. Cells were treated with IFNα at a concentration of 1 ng/μL or 10 ng/μL on Day 0 (preactivation), Day 1 (activation), Day 4, or Day 6, or untreated throughout the process. All cultures were infected with HHV-6 on Day 8, regardless whether the cells were pre-treated with IFNα or left untreated.
The effects of IFNα on HHV-6 infection were analyzed in cells from two different donors. The transcripts of viral genes U100 (FIGS. 6A and 7A) and U79 (FIGS. 6B and 7B) were analyzed by RT-qPCR at the time points of three, seven and ten days post infection (i.e., on Day 11, Day 15 and Day 18 of the small scale manufacturing process). The y-axis reprepresents relative-fold change for each value compared to the endogenous GAPDH as well as untreated donor RNA (Day 0 before IFNα treatment).

HHV-6 [9] = experiment: Timing of IFNα addition before HHV-6 infection, viral DNA by qPCR; type: cell-based, Human herpesvirus 6; conditions: data not shown
HHV-6B (strain Z-29) [10] = experiment: Small-scale CAR T process with HHV-6B infection, viral RNA (U79, U90, U100) by RT-qPCR; type: cell-based, human herpesvirus 6B (strain Z-29)
Description: as §3
Total RNA was extracted from cells and analyzed using reverse transcription qPCR (RT-qPCR) assay for U79, U90, U100 and GAPDH genes to determine HHV-6 infectivity.

C[C@H]1[C@H](OC(=O)CCC(=O)O)O[C@@H]2O[C@@]3(C)CC[C@H]4[C@H](C)CC[C@@H]1[C@@]24OO3 [Artesunate]
HHV-6 levels (U65 gene copies by qPCR) (HHV-6 [1]): increased HHV-6 levels over the culture period | EC50 (HHV-6 [2]): 3.8 µM | cell health / apoptosis [3]: induced higher level of apoptosis

IFNα: human IFN-α2a (Miltenyi), a type I IFN; exemplary sequence SEQ ID NO: 19/20
viral DNA, reactivated (RA) versus non-reactivated (NRA) samples (HHV-6B in CEM-HHV6 cells; IFNα 100 ng/mL): virtually no distinction between the NRA and the RA samples | level of viral growth (HHV-6 DNA qPCR) (HHV-6B in CEM-HHV6 cells; as the IFNα dosage increased (0.01, 1, 100 ng/mL), pre- or post-treatment): the level of viral growth was reduced | cells positive for HHV-6 p41 (immunofluorescence) (HHV-6 p41; Batch 1 (HHV-6 high) DP culture, D4, increasing concentration of IFNα): fewer cells positive for HHV-6 p41 | cells positive for HHV-6 p41 (immunofluorescence) (HHV-6 p41; batch 2 (HHV-6 low) culture, D4, regardless of concentration used, data not shown): no detectable HHV-6 p41 positive cells | proliferation of CAR-T cells (CAR T cells [4]): could suppress the proliferation | HHV-6 viral antigen p41 expression (HHV-6 viral antigen p41): effectively reduced | decrease of HHV-6 DNA levels (U31) (HHV-6B (strain Z-29) [5]): 16 to 38 fold | HHV-6 viral DNA (U31) fold-change relative to D0 (HHV-6 [6]): reduction in the viral load compared to the control | fold of CAR T cell expansion (CAR T cells [7]): did not significantly affect | U79 transcript (HHV-6 [8]; IFNα added on Day 4 or Day 6 (samples C5-C8)): decreased transcript | U100 transcript level (HHV-6 [8]; IFNα added on Day 6 (conditions C7, C8; 10 and 1 ng/μL), infection Day 8, compared to C9): greatest reduction of U100 transcript level | viral load as determined by qPCR (HHV-6 [9]; IFNα added on Day 6 (C7, C8)): lowest level of viral load | suppression of HHV-6 infection (U31 DNA qPCR) (HHV-6 [9]; doses of IFNα added closer to infection): strongest suppression effect | HHV-6 viral RNA (HHV-6B (strain Z-29) [10]; IFNα 10 ng/mL, D18): below detectable levels | HHV-6 RNA levels (U79, U90, U100) (HHV-6B (strain Z-29) [10]; donor #1, lowest concentration of IFNα, D11 to D18): decreased from D11 to D18

O=C(O)P(=O)(O)O [Foscarnet, foscarnet]
HHV-6 levels (U65 gene copies by qPCR) (HHV-6 [1]): maintain the HHV-6 levels at around their starting level | EC50 (HHV-6 [2]): 8.4 µM | cell health / apoptosis [3]: did not negatively affect cell health

Nc1nc2c(ncn2COC(CO)CO)c(=O)[nH]1 [Ganciclovir, ganciclovir]
HHV-6 levels (U65 gene copies by qPCR) (HHV-6 [1]): decreased viral load initially followed by an increase at later time points | EC50 (HHV-6 [2]): > 25 µM | cell health / apoptosis [3]: did not negatively affect cell health

Nc1ccn(C[C@@H](CO)OCP(=O)(O)O)c(=O)n1 [Cidofovir, cidofovir]
HHV-6 levels (U65 gene copies by qPCR) (HHV-6 [1]): increased HHV-6 levels over the culture period | EC50 (HHV-6 [2]): 12 to 15 µM | cell health / apoptosis [3]: induced higher level of apoptosis
